Experimental data from publication PMC7920280, “The Multi-Targeting Ligand ST-2223 with Histamine H3 Receptor and Dopamine D2/D3 Receptor Antagonist Properties Mitigates Autism-Like Repetitive Behaviors and Brain Oxidative Stress in Mice” (International Journal of Molecular Sciences, 2021).

Assays:
[1] = test system: BTBR and B6 mice; assay: Marble burying task (MBT); assay type: in vivo; conditions: MEM 5 mg/kg; for percentage of marbles buried vs vehicle-treated BTBR mice: i.p. 30-45 min before, ST-2223 2.5, 5 and 10 mg/kg, ARP 1 mg/kg; for percentage of marbles buried vs vehicle-treated B6 mice: i.p., ST-2223 2.5, 5, 10 mg/kg
Method: (§1) The drugs tested included ST-2223 [N-(4-(4-(2-methoxyphenyl)piperazin-1-yl)butyl)-6-(3-(piperidin-1-yl)propoxy)-2-naphthamide] that was designed and synthesized in the Institute of Pharmaceutical and Medicinal Chemistry, Heinrich Heine University Düsseldorf, Germany, and in accordance with previously described methodologies (Supplementary Materials). Aripiprazole (ARP) (1 mg/kg, i.p.) and memantine (MEM, 5 mg/kg, i.p.), as reference drugs, were purchased from Sigma-Aldrich (St. Louis, MO, USA). The CNS-penetrant H3R agonist (R)-α-methylhistamine (RAM, 10 mg/kg, i.p.) was purchased from Sigma-Aldrich, St. Louis, MO, USA. T. Protease and the phosphatase inhibitor cocktail were procured from Thermo Scientific, USA. The assay kit for reduced glutathione (GSH) was obtained from Sigma-Aldrich (St. Louis, MO, USA). The lipid peroxidation assay kit for estimation of malondialdehyde (MDA) was purchased from North West Life Science (Vancouver, WA, USA). The assay kits for superoxide dismutase (SOD) and catalase (CAT) were purchased from Cayman Chemical (Ann Arbor, MI, USA). The drugs were prepared daily using 1% dimethyl sulfoxide (DMSO) in 0.9% saline, for intraperitoneal (i.p.) administration at a volume of 10 mL/kg of body weight. Vehicle treatment consisted of 1% DMSO in 0.9% normal saline. All drugs were i.p. administered 30 min before the behavioral test. The doses of these drugs were chosen based on previous reports. Neurobehavioral assessment was performed blindly with respect to experimental group and drug administration.
The MBT is used for testing repetitive and compulsive behaviors as it accurately reflects repetitive digging behavior [95, 96]. The test was performed as described previously, with slight modifications. Briefly, cages (26 cm × 48 cm × 20 cm) were filled with fresh, unscented mouse bedding material to a depth of 5 cm, on top of which 20 marbles were placed in 4 rows of 5 marbles each (15 mm diameter). Before placing the marbles, the bedding surface was leveled by placing another cage of the same size onto the surface of the bedding and then each mouse was individually added for 10 min habituation. After habituation, the mouse was removed, and the marbles were carefully overlaid. The same mouse was then returned to its designated test cage and allowed to explore for 30 min. The total number of marbles buried (>50% marble covered by the bedding material) was determined at the end of the session.

[2] = test system: BTBR and B6 mice; assay: Self-grooming paradigm (SGP); assay type: in vivo; conditions: for time spent self-grooming vs vehicle-treated B6 mice / time spent self-grooming vs vehicle-treated BTBR mice: i.p., MEM 5 mg/kg, ARP 1 mg/kg; for time spent self-grooming vs vehicle-treated B6 mice: ST-2223 2.5, 5 and 10 mg/kg; for time spent self-grooming vs vehicle-treated BTBR mice: ST-2223 5 and 10 mg/kg
Method: as §1
In the SGP test, mice were scored for spontaneous grooming behaviors. […] To measure SGP, each mouse was placed individually in a standard clear plastic cage (28 cm wide × 17 cm long × 12 cm high) for a total of 20 min. Mice were allowed to freely explore the cage for the entire test, the first 10 min served as a habituation period. After 10 min habituation, each mouse was scored with a stopwatch for 10 min for cumulative time spent grooming all body regions. Grooming behavior included head washing, body grooming, genital/tail grooming and paw and leg licking. The observer sat approximately 1 m from the test cage during the second 10 min of testing.

[3] = test system: BTBR and B6 mice; assay: Open field test (OFT): locomotor activity and anxiety levels; assay type: in vivo; conditions: i.p.; for total distance travelled (OFT) / time spent in the periphery (OFT), effect of treatment: B6 and BTBR mice; for total distance travelled (OFT) / time spent in the central arena (OFT) vs vehicle-treated B6 mice / time spent in center (OFT) vs vehicle-treated BTBR mice: ST-2223 2.5, 5 and 10 mg/kg, MEM 5 mg/kg, ARP 1 mg/kg; for time spent in the periphery (OFT), effect of treatment: ST-2223 2.5, 5 or 10 mg/kg, MEM, ARP
Method: as §1
The open field test (OFT) systematically evaluates exploration behaviors executed in a novel open field (considered as a novel environment), as an independent control for the effects of the drugs on physical activity that could confound the interpretation of the results from the self-grooming, anxiety and spontaneous alternation. Mice were allowed to freely explore an open-field arena (45 × 45 × 30 cm), to assess general locomotor activity, and anxiety-related behaviors. The center arena was defined as the central 23 × 23 cm area. Mice were given 5 min to habituate in the center area of the arena before the recording started for the actual behavioral assessments. Recording lasted for 10 min using charge-coupled device (CCD) camera-assisted motion tracking apparatus and software (EthoVision 3.1, Noldus Information Technology, The Netherlands), and the total distance moved in the whole arena, time spent in the center and periphery were recorded. Test chambers were cleaned with 70% ethanol after each trial and were allowed to dry until ethanol evaporation and odor dissipation had occurred. When interpreting the results observed in this assessment, less time spent in the center was considered as an indicator for high levels of anxiety-like behaviors and total distance travelled signified the overall locomotor activity of tested animals.

[4] = test system: malondialdehyde (MDA); assay: Malondialdehyde (MDA) assay in brain parts of treated BTBR mice; assay type: in vivo; conditions: i.p., ST-2223 5 mg/kg, RAM 10 mg/kg, ARP 1 mg/kg, MEM 5 mg/kg, mean ± SEM; for MDA, Striatum: n = 3-6, BTBR vehicle 52.7 ± 3.4; for MDA, Hippocampus: n = 3-6, BTBR vehicle 53.8 ± 2.9; for MDA, Cerebellum: n = 3-6, BTBR vehicle 54.0 ± 6.4; for MDA, Prefrontal Cortex: n = 3-6, BTBR vehicle 58.3 ± 1.8
Method: At the end of the behavioral assessments, the animals were sacrificed following previously published protocols. Animals were anesthetized with pentobarbital (40 mg/kg, body weight, i.p.), sacrificed, and perfused via intracardial infusion to wash out the blood, using 1× PBS (0.01 M phosphate buffer, 0.0027 M potassium chloride and 0.137 M sodium chloride) at pH 7.4. […] The brains were then quickly removed and placed on an ice plate. The cerebellum, hippocampus, prefrontal and striatum were excised from the brain and snap-frozen in liquid nitrogen for further use in biochemical assessments. On the day of the biochemical tests, the tissues were homogenized using radioimmunoprecipitation assay (RIPA) buffer (50 mM Tris HCl, pH 7.4, 140 mM NaCl, 1 mM EDTA, 0.5% Triton X-100 and 0.5% sodium deoxycholate) supplemented with protease and phosphatase inhibitors. Then, the homogenates were centrifuged at 14,000 rpm for 30 min (4 °C), and the supernatant was used for evaluation of lipid peroxidation, glutathione, and antioxidant enzymes using spectrophotometric measurements and enzyme-linked immunosorbent assays (ELISA)..
This assay was performed to estimate the amount of lipid peroxidation in experimental animals using an MDA detection kit following the manufacturer’s instructions, as previously described in our laboratories. Briefly, 250 μL of sample or calibrator was incubated with thiobarbituric acid, followed by rigorous vortexing. After 1 h incubation at 60 °C, the mixture was centrifuged at 10,000× g for 2–3 min and the reaction mixture was transferred to a cuvette. Spectra were measured at 532 nm and the results are expressed as µM MDA/mg protein.

[5] = parameters: method as in PMID 31647973; conditions: systemic pretreatment; cited from earlier work

Row | Structure (SMILES) | percentage of marbles buried vs vehicle-treated BTBR mice [1] | time spent self-grooming vs vehicle-treated B6 mice [2] | total distance travelled (OFT) [3] | time spent in the periphery (OFT), effect of treatment [3] | time spent in the central arena (OFT) vs vehicle-treated B6 mice [3] | time spent in center (OFT) vs vehicle-treated BTBR mice [3] | MDA, Striatum [4] [µM MDA/mg protein] | MDA, Hippocampus [4] [µM MDA/mg protein] | MDA, Cerebellum [4] [µM MDA/mg protein] | MDA, Prefrontal Cortex [4] [µM MDA/mg protein] | enhanced frequency of self-grooming induced by neuromedin U [5] | percentage of marbles buried vs vehicle-treated B6 mice [1] | time spent self-grooming vs vehicle-treated BTBR mice ([2]; BTBR mice) | self-grooming behavior vs vehicle-treated BTBR mice ([2]; BTBR mice, ST-2223 2.5 mg/kg i.p.)
1 | O=C1CCc2ccc(OCCCCN3CCN(c4cccc(Cl)c4Cl)CC3)cc2N1 [ARP, aripiprazole] | significantly reduced | did not alter | did not show any alteration | no significant effect | did not alter | significantly increased | 41.2 ± 1.4 | 32.9 ± 4.1 | 36.8 ± 1.8 | 43.0 ± 2.5 | attenuation | – | – | –
2 | CC12CC3CC(C)(C1)CC(N)(C3)C2 [MEM, memantine] | significantly reduced | significantly reduced | did not show any alteration | no significant effect | did not alter | failed to significantly mitigate | 32.6 ± 4.1 | 32.8 ± 3.4 | 26.7 ± 3.6 | 40.0 ± 5.7 | – | not significant | significantly reduced | –
3 | COc1ccccc1N1CCN(CCCCNC(=O)c2ccc3cc(OCCCN4CCCCC4)ccc3c2)CC1 [ST-2223, N-(4-(4-(2-methoxyphenyl)piperazin-1-yl)butyl)-6-(3-(piperidin-1-yl)propoxy)-2-naphthamide] | significantly decreased | did not alter | did not show any alteration | no significant effect | did not alter | significantly increased | 34.5 ± 5.5 | 38.1 ± 3.1 | 35.2 ± 1.8 | 39.1 ± 3.2 | – | did not alter | significantly, and dose-dependently, decreased | failed to significantly mitigate
